From patent US11944623B2, “Modulators of Kv3 channels to treat pain” (Autifony Therapeutics Limited, priority 2015, dated 2024) come the findings set out here.

In assay [1] the target is T1, Human Kv7.2/7.3 heteromeric channels (Homo sapiens, UniProt O43525+O43526).
T1 construct: expressed in transfected cells
Nature of the assay: Kv7.2/7.3 patch clamp assay. Format: cell-based. The following applies: 10 µM concentration (N=3). The method, then: Human Kv7.2/7.3 heteromeric channels were stably expressed in a HEK293 cell line. Cells were plated onto 13 mm plastic dishes and incubated for 1-3 days in a 5% CO2 incubator for conventional whole-cell patch clamp experiments. Electrophysiological recordings were made using an automated patch clamp platform (QPatch, Sophion Biosciences). Internal (pipette) solution contained (in mM): K-Aspartate (130), KCl (15), MgCl2 (5.5), Na2ATP (5), K2PCr (5), EGTA (20), HEPES (10), pH 7.25 with KOH, was used to study Kv7.2/7.3 currents. Cells were superfused at room temperature with a standard physiological solution containing (mM): NaCl (140), KCl (4), CaCl2 (2), MgCl2 (1), glucose (10), HEPES (10), pH 7.35 with NaOH.
Patch pipettes were pulled from borosilicate glass and had tip resistances of 2-4 MW when filled with the above solution. Capacitative transients were compensated electronically from the recordings. However, the voltage drop across the series resistance and the liquid junction potential were not compensated. The series resistance was generally less than 10 MG (n=5 cells), with a mean cell capacity of 25±5 pF.
In some cases, manual patch clamp was carried out using an Axon 200B amplifier (Axon Instruments). The software program pClamp (version 10) from Axon Instruments was used to stimulate and record electrical activity. […]
(In patch-clamp work, channel activity is measured electrically.)

Another assay addresses T2, hKv3.4 channels (Homo sapiens, UniProt Q03721).
T2 construct: expressed in transfected cells; host or cells: Xenopus laevis oocytes, microinjected in vitro transcribed mRNA
T2 sequence (Q03721 1-635): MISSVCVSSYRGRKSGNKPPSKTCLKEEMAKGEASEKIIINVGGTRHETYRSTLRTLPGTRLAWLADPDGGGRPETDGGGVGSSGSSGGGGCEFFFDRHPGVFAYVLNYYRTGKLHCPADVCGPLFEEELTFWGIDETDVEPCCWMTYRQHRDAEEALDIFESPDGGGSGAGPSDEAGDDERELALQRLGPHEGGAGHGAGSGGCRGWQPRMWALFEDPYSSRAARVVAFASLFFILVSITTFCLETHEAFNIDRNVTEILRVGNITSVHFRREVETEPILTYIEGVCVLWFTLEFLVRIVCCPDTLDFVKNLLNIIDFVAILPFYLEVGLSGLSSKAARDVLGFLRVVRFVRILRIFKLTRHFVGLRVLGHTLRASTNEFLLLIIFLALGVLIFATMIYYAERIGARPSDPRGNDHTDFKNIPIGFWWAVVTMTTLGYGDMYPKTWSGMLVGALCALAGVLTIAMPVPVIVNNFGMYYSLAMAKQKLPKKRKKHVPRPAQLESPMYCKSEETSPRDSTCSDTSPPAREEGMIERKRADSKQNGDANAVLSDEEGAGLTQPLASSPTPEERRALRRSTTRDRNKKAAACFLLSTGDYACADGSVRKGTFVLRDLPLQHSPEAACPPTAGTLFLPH
Nature of the assay: Kv3.4 Assay 3 (two-electrode voltage clamp, Xenopus oocytes). The format is cell-based. Also on record: dose or concentration left out as unconfirmed. How it is done: hKv3.4 channels were heterologously expressed in Xenopus ooctyes following microinjection of in vitro transcribed mRNA (mMessage mMachine kit, Ambion, Austin, TX). Whole-oocyte currents were recorded 1-4 day post-microinjection at room temperature (21-23° C.) under two-electrode voltage-clamp conditions (OC-725C, Warner, Hamden, CT). ND-96 and ND-96 plus the test compound were delivered using a gravity-driven perfusion system. Whole-oocyte currents mediated by hKv3.4 channels were elicited by 400 ms depolarizing steps from −40 to 60 mV in 10 mV increments from a holding potential of −100 mV under in the absence and then presence of test compound. Voltage-conductance curves were constructed from the peak currents evoked at each voltage step, and the data were fitted to a Boltzmann equation. Data acquisition, leak subtraction and initial analyses were performed using pClamp 9.2/10.3 (Molecular Devices, Sunnyvale, CA). Macroscopic currents were low-pass filtered at 0.5-1 kHz and digitized at 1-2 kHz. Leak and capacitive currents were subtracted on line using a p/4 subtraction strategy. Xenopus laevis frogs were handled according IACUC approved protocols and regulations.
(Two-electrode voltage clamp holds a large cell at a set potential and records current.)

As to `CC[C@@]1(C)NC(=O)N(c2cnc(Oc3ccc(C)c(OC(F)(F)F)c3)nc2)C1=O` [Compound 2, (5R)-5-ethyl-5-methyl-3-[2-({4-methyl-3-[(trifluoromethyl)oxy]phenyl}oxy)-5-pyrimidinyl]-2,4-imidazolidinedione], the “effect on Kv7.2/7.3-mediated currents” value in assay [1] is recorded as “Neither compound was found to have a significant effect”.
`Cc1ccc(Oc2ncc(N3C(=O)NC(C)(C)C3=O)cn2)c2c1OCC21CC1` [Compound 1, 5,5-dimethyl-3-[2-(7-methylspiro[2H-benzofuran-3,1′-cyclopropane]-4-yl)oxypyrimidin-5-yl]imidazolidine-2,4-dione]: on hKv3.4 channels, the “effect on Kv3.4 mediated channel currents” value was “No significant effect” and the “shift of the voltage-conductance curve for hK3.4” value is “did not significantly shift”. In assay [1], the “effect on Kv7.2/7.3-mediated currents” value is given as “Neither compound was found to have a significant effect”.
